What was measured:
[1] = tested on: phosphorylated ERK in MDA-MB-231 breast cancer cells; assay: Western blotting for phosphorylated ERK in EGF-stimulated MDA-MB-231 cells; format: cell-based; conditions: Homo sapiens, 30 min compound, 100 ng/ml EGF for 5 min, phospho-ERK Western blot
Description: Effects of compounds in the cell can be determined by Western blotting for phosphorylated ERK. MDA-MB-231 breast cancer cells are plated in a 48 well plate at 20,000 cells per well and are grown in a 37° humidified CO2 incubator. The following day, the growth media (DMEM+10% fetal bovine serum) is removed and replaced with starve media (DMEM+0.1% fetal bovine serum). Cells are incubated in the starve media for sixteen hours and then treated with a range of compound concentrations for thirty minutes.
After incubation with compound, cells are stimulated with 100 ng/ml EGF for five minutes. The cells are then lysed and analyzed by Western blot using a monoclonal antibody raised to phosphorylated ERK. The signal is amplified using a secondary antibody conjugated to a near-IR dye and detected on a Licor Odyssey scanner.

[2] = biological target: T1, Human GST-MEK1CA (constitutively active MEK1, Ser218Asp and Ser222Asp) (Homo sapiens, UniProt Q02750, S218D/S222D); assay: MEK1 enzymatic activity assay (33P incorporation, MEK1CA/ERK2/MBP); format: biochemical; conditions: MEK1CA with ERK2, MBP and [γ33P]ATP; 30 min preincubation, 60 min reaction
T1 construct: GST; made in house; host or cells: Escherichia coli
T1 sequence (Q02750 whole entry S218D/S222D): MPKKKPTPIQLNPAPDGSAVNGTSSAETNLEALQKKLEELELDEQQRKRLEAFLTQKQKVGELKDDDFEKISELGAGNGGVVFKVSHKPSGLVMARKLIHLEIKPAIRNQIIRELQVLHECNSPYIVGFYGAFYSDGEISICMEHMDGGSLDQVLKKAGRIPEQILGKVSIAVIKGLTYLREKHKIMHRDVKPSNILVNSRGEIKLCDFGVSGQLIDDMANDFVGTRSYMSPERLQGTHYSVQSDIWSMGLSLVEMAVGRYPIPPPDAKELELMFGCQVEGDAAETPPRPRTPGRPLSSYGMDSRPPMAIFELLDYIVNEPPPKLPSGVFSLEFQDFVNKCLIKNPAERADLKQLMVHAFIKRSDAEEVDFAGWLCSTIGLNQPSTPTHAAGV
Excerpt: Materials and preparation of reagents: Human GST-MEK1 and the constitutively […] active allele GST-MEK1^CA (harboring the mutations Ser218Asp and Ser222Asp) can be subcloned into the yeast expression vector pGEM4Z (Promega, Madison, Wis.) from the wild type human MEK1 cDNA. GST-MEK1CA was expressed in Escherichia coli and can be partially purified using Glutathione Sepharose 4B affinity resin (Amersham Pharmacia Biotech, Piscataway, N.J.). The ERK2 allele can be subcloned from MAPK2/Erk2 cDNA (wild type) in […] pUSEamp (Upstate Biotechnology, Inc., Waltham, Mass.) into the vector pET21a (Novagen, Madison, Wis.) resulting in an N-terminal histidine-tagged mouse ERK2 allele. ERK2 can be expressed and purified to homogeneity [Zhang, 1993 #33]. Myelin basic protein (MBP) can be purchased from Gibco BRL (Rockville, Md.). EasyTides adenosine 5′-triphosphate (ATP) ([γ-33P]) (NEN Perkin Elmer, Wellesley, Mass.) is the source of radiolabel for all kinase reactions. Activated Raf-1 (truncated) and activated MAPKinase 2/ERK2 can be purchased from Upstate, Inc. (Lake Placid, N.Y.). 4-20% Criterion Precast gels can be purchased from Bio-Rad (Hercules, Calif.).
Determination of enzymatic activity: Compounds are diluted from dimethylsulfoxide (DMSO) stocks into 1×HMNDE (20 mM HEPES pH 7.2, 1 mM MgCl2, 100 mM NaCl, 1.25 mM DTT, 0.2 mM EDTA). A typical 25-microliter assay contained 0.002 nanomoles MEK1^CA, 0.02 nanomoles ERK2, 0.25 nanomoles MBP, 0.25 nanomoles unlabeled ATP, and 0.1 μCi [γ33P] ATP. The screening assay essentially comprises four additions. Five μl of diluted compound are dispensed to 96-well assay plates. Ten μl of 2.5× enzyme cocktail (MEK1^CA and ERK2 only) are then added to each well followed by a preincubation for 30 minutes at ambient temperature. Ten μl of 2.5× substrate cocktail (labeled and unlabeled ATP plus MBP) are then added, followed by incubation for 60 minutes at ambient temperature. Finally, 100 μl of 10% trichloroacetic acid (TCA) are added and incubated for 30 minutes at room temperature to halt the reaction and precipitate radiolabeled protein products. Reaction products are harvested on glass fiber 96 well filter plates prewetted with water and 1% pyrophosphate. The filter plate is then washed 5 times with water. Water is displaced by absolute ethanol and the plate is allowed to air dry for 30 minutes at room temperature. A back seal is applied manually and 40 μl of scintillation cocktail are dispensed to each well. A top seal is applied and the plate is counted in the TopCount for two seconds per well.

Structure (SMILES) | EC50 [1] [nM] | IC50 [2] [nM]
Cc1onc2c(F)c(Nc3ccc(I)cc3F)c(NS(=O)(=O)C3CC3)cc12 [Example 7, N-(7-fluoro-6-(2-fluoro-4-iodophenylamino)-3-methylbenzo[c]isoxazol-5-yl)cyclopropanesulfonamide] | 10 to 100 | 10 to 100
O=S(=O)(Nc1cn2ccnc2c(Cl)c1Nc1ccc(Br)cc1Cl)C1(CCO)CC1 [Example 10, N-(7-(4-bromo-2-chlorophenylamino)-8-chloroimidazo[1,2-a]pyridin-6-yl)-1-(2-hydroxyethyl)cyclopropane-1-sulfonamide] | 10 to 100 | 100 to 1000
Cc1noc2c(F)c(Nc3ccc(I)cc3F)c(NS(=O)(=O)C3CC3)cc12 [Example 3, N-(7-fluoro-6-(2-fluoro-4-iodophenylamino)-3-methylbenzo[d]isoxazol-5-yl)cyclopropanesulfonamide] | 1 to 10 | 10 to 100
Cc1noc2c(F)c(Nc3ccc(I)cc3F)c(NS(=O)(=O)C3(CCO)CC3)cc12 [Example 4, 1-(2-hydroxyethyl)-N-(7-fluoro-6-(2-fluoro-4-iodophenylamino)-3-methylbenzo[d]isoxazol-5-yl)cyclopropane-1-sulfonamide] | 1 to 10 | 10 to 100
O=S(=O)(Nc1cn2ccnc2c(Cl)c1Nc1ccc(I)cc1F)C1(CCO)CC1 [Example 12, N-(8-chloro-7-(2-fluoro-4-iodophenylamino)imidazo[1,2-a]pyridin-6-yl)-1-(2-hydroxyethyl)cyclopropane-1-sulfonamide] | 1 to 10 | 10 to 100
Cc1c(Nc2ccc(Br)cc2Cl)c(NS(=O)(=O)C2CC2)cn2ccnc12 [Example 17, N-(7-(4-bromo-2-chlorophenylamino)-8-methylimidazo[1,2-a]pyridin-6-yl)cyclopropanesulfonamide] | 10 to 100 | 100 to 1000
Cc1noc2c(F)c(Nc3ccc(I)cc3F)c(NS(=O)(=O)C3(CC(O)CO)CC3)cc12 (centres unmarked) [Example 5, 1-(2,3-dihydroxypropyl)-N-(7-fluoro-6-(2-fluoro-4-iodophenylamino)-3-methylbenzo[d]isoxazol-5-yl)cyclopropane-1-sulfonamide] | 0.1 to 1 | 1 to 10
Cn1cnc2c(F)c(Nc3ccc(I)cc3F)c(NS(=O)(=O)C3(CCO)CC3)cc21 [Example 2, N-(4-fluoro-5-(2-fluoro-4-iodophenylamino)-1-methyl-1H-benzo[d]imidazol-6-yl)-1-(2-hydroxyethyl)cyclopropane-1-sulfonamide] | 1 to 10 | 10 to 100
Cc1nn(C)c2c(F)c(Nc3ccc(I)cc3F)c(NS(=O)(=O)C3CC3)cc12 [Example 30, N-(6-(2-fluoro-4-iodophenylamino)-7-fluoro-1,3-dimethyl-1H-indazol-5-yl)cyclopropanesulfonamide] | 100 to 1000 | 10000 to 50000
Cc1c(Nc2ccc(I)cc2F)c(NS(=O)(=O)C2CC2)cn2ccnc12 [Example 14, N-(7-(2-fluoro-4-iodophenylamino)-8-methylimidazo[1,2-a]pyridin-6-yl)cyclopropanesulfonamide] | 0.1 to 1 | 10 to 100
Cc1c(Nc2ccc(I)cc2F)c(NS(=O)(=O)C2(CC(O)CO)CC2)cn2ccnc12 (centres unmarked) [Example 16, 1-(2,3-dihydroxypropyl)-N-(7-(2-fluoro-4-iodophenylamino)-8-methylimidazo[1,2-a]pyridin-6-yl)cyclopropane-1-sulfonamide] | 10 to 100 | 10 to 100

Next, values leading:

EC50 [1] [nM] | IC50 [2] [nM] | Structure (SMILES)
1 to 10 | 1000 to 10000 | Cc1c2cc(NS(=O)(=O)C3CC3)c(Nc3ccc(I)cc3F)c(F)c2nn1C [Example 29, N-(6-(2-fluoro-4-iodophenylamino)-7-fluoro-2,3-dimethyl-2H-indazol-5-yl)cyclopropanesulfonamide]
10 to 100 | 100 to 1000 | O=S(=O)(Nc1cn2ccnc2c(Cl)c1Nc1ccc(Br)cc1Cl)C1CC1 [Example 9, N-(7-(4-bromo-2-chlorophenylamino)-8-chloroimidazo[1,2-a]pyridin-6-yl)cyclopropanesulfonamide]
10 to 100 | 1000 to 10000 | Cc1c(Nc2ccc(Br)cc2Cl)c(NS(=O)(=O)C2(CCO)CC2)cn2ccnc12 [Example 18, N-(7-(4-bromo-2-chlorophenylamino)-8-methylimidazo[1,2-a]pyridin-6-yl)-1-(2-hydroxyethyl)cyclopropane-1-sulfonamide]
1 to 10 | 100 to 1000 | Cc1noc2c(F)c(Nc3ccc(Br)cc3Cl)c(NS(=O)(=O)C3CC3)cc12 [Example 6, N-(7-fluoro-6-(4-bromo-2-chlorophenylamino)-3-methylbenzo[d]isoxazol-5-yl)cyclopropanesulfonamide]
100 to 1000 | 10000 to 50000 | Cc1ncnc2c(F)c(Nc3ccc(I)cc3F)c(NS(=O)(=O)C3CC3)cc12 [Example 34, N-(7-(2-fluoro-4-iodophenylamino)-8-fluoro-4-methylquinazolin-6-yl)cyclopropanesulfonamide]
